The term viability denotes a read-out of living cells in per cent, often relative to untreated cells.

Each structure is given as a SMILES string.

The first data set can be described thus: in vitro. Particulars: human, hela cells.
Regarding `CN(Cc1ccc(-c2ccc(S(C)(=O)=O)cc2)nc1)C1CCN(C(=O)Oc2ccc(F)cc2)CC1` [CBK166097], the viability at 28.5 h, 10 µM was found to be 91.5%.

The data set is the same for the next values; noted with them: human, hela cells, % viability.
As to `CCCCc1ccc(N)c(C)c1` [CBK164057C], the viability at 28.5 h, 10 µM was found to be 89.9%.

As to `CN(Cc1ccc(-c2ccc(S(C)(=O)=O)cc2)nc1)C1CCN(C(=O)c2ccc(Cl)c(Cl)c2)CC1` [CBK164101T], the viability at 28.5 h, 10 µM came out at 104%.

Turning to `CN(Cc1ccc(-c2ccc(S(C)(=O)=O)cc2)nc1)C1CCN(C(=O)CC2CCCCC2)CC1` [CBK164105T], the viability at 28.5 h, 10 µM stood at 92.6%.

`O=C(N1CCC(Oc2nccnc2OCc2ccc(Cl)cc2F)CC1)C(F)(F)F` [CBK164142]: the viability at 28.5 h, 10 µM was 89.5%.

For the molecule `COc1cc(C(=O)N2CCC3(CC2)CC(=O)c2cc(C)c(C)cc2O3)ccc1C` [CBK164202], the viability at 28.5 h, 10 µM is 105%.

Regarding `O=C(c1n[nH]nc1-c1ccccc1)N1CCCC(C(F)(F)F)C1` (centres unmarked) [CBK164228], the viability at 28.5 h, 10 µM worked out at 96.1%.

Take `COc1cc(OC)cc(C(=O)N2CCC3(CC2)CC(=O)c2c(OC)cc(OC)cc2O3)c1` [CBK164233]: the viability at 28.5 h, 10 µM was 105%.

On to `COc1ccc(CCNC(=O)c2cnc(-c3ccc(Cl)cc3)c(-c3cccc(CNC(C)=O)c3)c2)cc1OC` [CBK164413], for which the viability at 28.5 h, 10 µM was 95%.

In the case of `CCCN(C)Cc1ccc(-c2nnn(CC(=O)NCc3ccc(CC)cc3)n2)cc1NC(C)=O` [CBK164703], the viability at 28.5 h, 10 µM was found to be 105%.

As to `CCCN(C)Cc1ccc(-c2cn(CC(=O)NCc3ccc(C(F)(F)F)cc3)nn2)cc1` [CBK164719], the viability at 28.5 h, 10 µM worked out at 92.9%.

Regarding `Cc1c(S(=O)(=O)N2CCC(N)C2)sc2ccc(Cl)cc12` (centres unmarked) [CBK164970], the viability at 28.5 h, 10 µM worked out at 89.3%.

Consider `CC(C)(C)c1ccc(N(C2CCNCC2)S(=O)(=O)c2cccc(C(F)(F)F)c2)cc1` [CBK165056T], for which the viability at 28.5 h, 10 µM was determined as 114%.

Take `CC(C)(C)c1ccc(N(C2CCNCC2)S(=O)(=O)c2ccc(Cl)cc2Cl)cc1` [CBK165067T]: the viability at 28.5 h, 10 µM came to 51%.

Take `Cc1ccccc1S(=O)(=O)N(c1ccc(C(C)(C)C)cc1)C1CCNCC1` [CBK165074T]: the viability at 28.5 h, 10 µM came to 97.8%.

As for `COc1ccc(S(=O)(=O)N(c2ccccc2)C2CCNCC2)cc1OC` [CBK165076T], the viability at 28.5 h, 10 µM was 73.9%.

`CC(C)c1ccc(S(=O)(=O)N(c2ccccc2)C2CCNCC2)cc1` [CBK165088T]: the viability at 28.5 h, 10 µM came out at 108%.

Take `CCCc1ccc(S(=O)(=O)N(c2ccccc2)C2CCNCC2)cc1` [CBK165121T]: the viability at 28.5 h, 10 µM came to 108%.

For the molecule `COc1cccc(OCc2cnc(-c3ccc(Cl)cc3)c(-c3cccc(CNC(C)=O)c3)c2)c1` [CBK165225], the viability at 28.5 h, 10 µM worked out at 90.5%.

With `COCCOC(=O)N1CCC(N(C)Cc2ccc(-c3ccc(S(C)(=O)=O)cc3)nc2)CC1` [CBK165258T], the viability at 28.5 h, 10 µM was 96.7%.

For `CC(=O)OCC(=O)N1CCC(N(C)Cc2ccc(-c3ccc(S(C)(=O)=O)cc3)nc2)CC1` [CBK165268], the viability at 28.5 h, 10 µM was determined as 116%.

Regarding `CC(C)OC(=O)N1CCC(CNc2ncc(-c3ccc(S(C)(=O)=O)cc3)cn2)CC1` [CBK165367], the viability at 28.5 h, 10 µM stood at 99.1%.

`CC(C)OC(=O)N1CCC(N(C)Cc2ccc(-c3ccc(S(C)(=O)=O)cc3)cn2)CC1` [CBK165581T]: the viability at 28.5 h, 10 µM came out at 90.8%.

Turning to `CN(Cc1ccc(-c2ccc(S(C)(=O)=O)cc2)cn1)C1CCN(C(=O)CC(C)(C)O)CC1` [CBK165684T], the viability at 28.5 h, 10 µM was determined as 93.1%.

For `CCc1nc2c(C(=O)NCCNC(C)=O)cnn2c(CC)c1Cc1ccc(Cl)cc1` [CBK165730], the viability at 28.5 h, 10 µM is 86%.

Turning to `O=C(Cn1cc(-c2ccc(CN3CCOCC3)cc2)nn1)NCc1cccc(C(F)(F)F)c1` [CBK165803], the viability at 28.5 h, 10 µM came out at 87.5%.

On to `COc1ccc(C(=O)N2CCC(N(C)Cc3ccc(-c4ccc(S(C)(=O)=O)cc4)nc3)CC2)cc1Cl` [CBK165991T], for which the viability at 28.5 h, 10 µM is 95.8%.

Regarding `Cc1ccc2c(c1)OC1(CCN(C(=O)c3cc4c(C)nn(C)c4s3)CC1)CC2=O` [CBK166037], the viability at 28.5 h, 10 µM came to 79.5%.

As to `COc1cc(C(=O)N2CCC3(CC2)CC(=O)c2ccc(C)cc2O3)ccc1O` [CBK166045], the viability at 28.5 h, 10 µM was found to be 86.6%.

Consider `CN(CC1CCN(C(=O)OC(C)(C)C)CC1)c1ccnc(-c2ccncc2)n1` [CBK166064], for which the viability at 28.5 h, 10 µM is 101%.

As for `[2H]C(C(=O)NCc1ccc2c(c1)CCC2)n1cc(-c2ccc(CN3CCC(C)CC3)cc2)nn1` (centres unmarked) [CBK166081-L1], the viability at 28.5 h, 10 µM amounted to 97.7%.

With `CC(C)Nc1nc2ccccc2nc1OCc1ccc(C2CC2C(=O)N(C)C)cc1` (centres unmarked) [CBK166091], the viability at 28.5 h, 10 µM turned out to be 92.5%.

Regarding `CC1CCN(Cc2ccc(-c3ccc(CNC(=O)c4ccc5c(c4)OC(F)(F)O5)s3)cc2)CC1` [CBK166113], the viability at 28.5 h, 10 µM was determined as 107%.

As for `CCOc1cc(OCC)cc(C(=O)N2CCC3(CC2)NC(=O)c2ccc(C)cc2O3)c1` [CBK166215], the viability at 28.5 h, 10 µM worked out at 117%.

Take `COc1cc(C(=O)N2CCC3(CC2)NC(=O)c2cc(C)ccc2O3)cc(OC)c1C` [CBK166273]: the viability at 28.5 h, 10 µM was 91%.

Consider `COc1cc(C(=O)N2CCC3(CC2)NC(=O)c2cc(C)ccc2O3)ccc1C` [CBK166276], for which the viability at 28.5 h, 10 µM stood at 108%.

Regarding `COc1ccc(C(=O)N2CCC3(CC2)NC(=O)c2cc(C)ccc2O3)cc1C` [CBK166277], the viability at 28.5 h, 10 µM was 89%.

For `CCOc1cc(OCC)cc(C(=O)N2CCC3(CC2)NC(=O)c2cc(I)ccc2O3)c1` [CBK166301], the viability at 28.5 h, 10 µM was 94.1%.

Regarding `COc1cc(OC)cc(C(=O)N2CCC3(CC2)NC(=O)c2ccc(OC)cc2O3)c1` [CBK166328], the viability at 28.5 h, 10 µM came out at 106%.

`COc1ccc(C)cc1NC(=O)N1CCC2(CC1)CC(=O)c1ccc(C)cc1O2` [CBK166520]: the viability at 28.5 h, 10 µM is 91.4%.

As for `Cc1nc2c(C(=O)NCCOCCO)cnn2c(C)c1Cc1ccc(F)c(Cl)c1` [CBK167457], the viability at 28.5 h, 10 µM was found to be 96.3%.

On to `O=C(Cn1cc(-c2ccc(CN3CCCCC3)cc2)nn1)NCc1ccc(OC(F)F)cc1` [CBK167514], for which the viability at 28.5 h, 10 µM was determined as 96%.

Regarding `CC1CCN(Cc2ccc(-c3cn(CC(=O)NCc4ccc(OC(F)(F)F)c(F)c4)nn3)cc2)CC1` [CBK167536], the viability at 28.5 h, 10 µM was determined as 87.3%.

`O=C(Cn1cc(-c2ccc(CN3CCCCC3)cc2)nn1)NCc1ccc(C2CCC2)cc1` [CBK167547]: the viability at 28.5 h, 10 µM stood at 86.6%.

As for `CCc1ccc(CNC(=O)Cn2cc(-c3ccc(CN4CCC(CO)CC4)cc3)nn2)cc1` [CBK167551], the viability at 28.5 h, 10 µM worked out at 105%.

Turning to `O=C(Cn1cc(-c2ccc(CN3CCCCC3)cc2)nn1)NCc1ccc(Cl)cc1Cl` [CBK167689], the viability at 28.5 h, 10 µM worked out at 83.2%.

For `Cc1c(S(=O)(=O)Nc2cccc(C(=O)OCC3CCCN(C)C3)c2)sc2ccc(Cl)cc12` (centres unmarked) [CBK167735G], the viability at 28.5 h, 10 µM was found to be 109%.

In the case of `COc1cc(C(=O)N2CCC3(CC2)CC(=O)c2cc(C)ccc2O3)cc(OC)c1C` [CBK167805], the viability at 28.5 h, 10 µM was found to be 99.6%.

For the molecule `CC(C)(C)OC(=O)N1CCC(COc2ccc(-c3ccc(S(C)(=O)=O)cc3)nc2)CC1` [CBK167839], the viability at 28.5 h, 10 µM is 108%.

Regarding `Cc1ccc2c(c1)OC1(CCN(C(=O)c3c(-c4ccccc4)nc4ccccn34)CC1)CC2=O` [CBK167871], the viability at 28.5 h, 10 µM was 92.9%.

As to `CCOc1cc(OCC)cc(C(=O)N2CCC3(CC2)CC(=O)c2c(OC)cccc2O3)c1` [CBK168012], the viability at 28.5 h, 10 µM was determined as 108%.

As for `CCOc1cc(OCC)cc(C(=O)N2CCC3(CC2)CC(=O)c2ccc(OCC)cc2O3)c1` [CBK168014], the viability at 28.5 h, 10 µM came to 98.8%.

As for `CCOc1cc(OCC)cc(C(=O)N2CCCC3(CC(=O)c4ccc(C)cc4O3)C2)c1` (centres unmarked) [CBK168067], the viability at 28.5 h, 10 µM was determined as 93.9%.

Regarding `COc1cc(OC)cc(C(=O)N2CCC3(CC2)CC(=O)c2cc(F)cc(F)c2O3)c1` [CBK168089], the viability at 28.5 h, 10 µM came to 108%.

Consider `CCOc1cc(OCC)cc(C(=O)N2CCCC3(CC2)CC(=O)c2ccc(C)cc2O3)c1` (centres unmarked) [CBK168241], for which the viability at 28.5 h, 10 µM came out at 98.2%.

Take `O=C(NC1CCNCC1)c1cc2ccccc2[nH]1` [CBK168609]: the viability at 28.5 h, 10 µM was 84.6%.

In the case of `CON=Cc1c[nH]c2ccccc12` [CBK168628], the viability at 28.5 h, 10 µM worked out at 93.7%.

In the case of `C(=N/OCc1ccccc1)/c1c[nH]c2ccccc12` [CBK168629], the viability at 28.5 h, 10 µM worked out at 79.3%.

`CN1CCC(NC(=O)c2cc3ccccc3[nH]2)CC1` [CBK168633]: the viability at 28.5 h, 10 µM turned out to be 88.3%.

For `CC12CCCN1CCCN2C(=O)c1c[nH]c2ccccc12` (centres unmarked) [CBK169228], the viability at 28.5 h, 10 µM stood at 87.2%.

Take `CC(C)(C)COC(=O)N1CCC(N2CCOc3ccc(-c4ccc(S(C)(=O)=O)cc4)cc3C2)CC1` [CBK169264]: the viability at 28.5 h, 10 µM turned out to be 83%.

Turning to `CS(=O)(=O)c1ccc(-c2ccc3c(n2)CCN(C2CCN(C(=O)OCc4ccccc4)CC2)C3)cc1` [CBK169530], the viability at 28.5 h, 10 µM came to 81.8%.

As for `COc1cc(C(=O)N2CCC3(CC2)CC(=O)c2cc(-c4cccnc4)ccc2O3)cc(OC)c1C` [CBK169606], the viability at 28.5 h, 10 µM was determined as 112%.

For `CN(C)C1CCN(C(=O)c2ccc(-c3cnc(OCC4CCN(C(=O)OC(C)(C)C)CC4)nc3)cc2)C1` (centres unmarked) [CBK169767], the viability at 28.5 h, 10 µM is 113%.

Turning to `CN1CCN(C(=O)c2ccc(-c3cnc(OCC4CCN(C(=O)OC(C)(C)C)CC4)nc3)cn2)CC1` [CBK170021], the viability at 28.5 h, 10 µM was 93.5%.

As for `CC(C)(C)OC(=O)N1CCC(COc2ncc(-c3ccc(C(=O)N4CCC[C@@H]4CO)nc3)cn2)CC1` [CBK170022], the viability at 28.5 h, 10 µM stood at 90.9%.

`CC(=O)NCCNC(=O)c1ccc(-c2cnc(OCC3CCN(C(=O)OC(C)(C)C)CC3)nc2)cn1` [CBK170023]: the viability at 28.5 h, 10 µM was 104%.

On to `COc1cc(C(=O)N2CCC3(CC2)CC(=O)c2ccc(-c4ccc(NS(C)(=O)=O)cc4)cc2O3)cc(OC)c1C` [CBK170163], for which the viability at 28.5 h, 10 µM stood at 90.8%.

For `CC(=O)N1CCN(c2nnc(-c3ccccc3)o2)CC1` [CBK170332], the viability at 28.5 h, 10 µM was determined as 87.9%.

Take `COc1cc(C(=O)N2CCC3(CC2)CC(=O)c2cc(-c4cccc(C)c4)ccc2O3)cc(OC)c1C` [CBK170341]: the viability at 28.5 h, 10 µM turned out to be 87.7%.

With `Cc1c(S(=O)(=O)N2CCN(C)CC2)sc2ccc(C(C)C)cc12` [CBK170362], the viability at 28.5 h, 10 µM was 90.1%.

These data come from article PMC12040169 (PLOS Biology, 2025).
